Test results: publication PMC8877822, “Interrogation of the Structure–Activity Relationship of a Lipophilic Nitroaromatic Prodrug Series Designed for Cancer Gene Therapy Applications” (Pharmaceuticals, 2022)
Where two headings read alike, the source gives them in different places.

What was measured:
[1] = LogD7.4 by low-volume octanol/PBS shake-flask method; type: physicochemical; details: n-octanol/PBS; octanol-water partition coefficient, shake-flask method at pH 7.4
Description: Distribution ratios (LogD7.4) were determined by a low-volume octanol/PBS shake-flask method. Briefly, saturated solutions of octanol and PBS were prepared by mixing equal volumes of n-octanol and PBS (pH 7.4) before being left for three days. The octanol and PBS phases were then carefully separated and left to stand for at least 24 h. Stock solutions (0.1–0.5 mM) of each compound were prepared in octanol saturated with PBS. The stock solutions were diluted with octanol saturated with PBS containing and inter-assay control (acridone) to a final compound concentration of 50 μM. Aliquots (450 μL) were then taken in triplicate, and 450 μL of PBS saturated with octanol was added into amber tubes. The tubes were then sealed in parafilm and rotated for 90 min at 30 rpm to equilibrate. After centrifugation (15,000× g, 5 min, 20°C) the octanol and PBS phases were separated into different tubes and the octanol phase diluted with methanol (1:5 v/v). Both phases were analyzed by HPLC (diode-array detector at 364 ± 10 nm) by injecting 50 μL of the PBS phase and 15 μL of the diluted octanol phase. The results were then expressed as the log ratio of the peak areas obtained from the octanol and PBS phases corrected for dilution and injection volume.

[2] = in vivo; type: in vivo, mice; details: for MTD: NIH-III nude, mouse, in vivo, ip, i.p., read-out: Maximum tolerated dose (MTD)
Description: NfsA_Ec potency and bystander effect from the diffusion of activated metabolites is only one determinant of the therapeutic utility of a GDEPT prodrug. Overall, anti-tumor activity will also depend on the efficiency of metabolic activation at well-tolerated prodrug doses, determined mainly by the relationship between host toxicity and plasma/tumor pharmacokinetics. Like PR-104A, the three lead prodrugs (1, 2, and 6) contain an alcohol side chain that requires addition of a phosphate ester to increase water solubility for in vivo applications. […] Employing identical methods, we determined the MTD of compounds 2-P and 6-P to be 1000 µmol/kg and 1330 µmol/kg, respectively (data summary in Table S1). In preparation for efficacy testing against H1299 xenografts, we next determined the MTD of each compound (1-P, 2-P, and 6-P) in H1299 tumor-bearing mice to be 1330 µmol/kg, 750 µmol/kg, and 1330 µmol/kg, respectively (Table S1). In each case 1-P, 2-P, and 6-P administration (i.p.) was well tolerated, with no evidence of morbidity or mortality, accompanied by a minimal body weight loss (BWL) nadir of −2.2%, −4.0%, and −5.3%, respectively (MTD defined as <−15% average BWL).
(§1) An estimated starting dose was determined from related compounds. Animals were promptly euthanized if body weight loss exceeded 20% or if there were clinical signs of severe morbidity. The MTD was defined as the highest dose, at which all animals survived (death rate < 1/6) with no unacceptable morbidity, and where the next dose increment had caused at least one death. Tumors were inoculated onto the flanks of NIH-III nude mice by subcutaneous injection of 10^7 H1299 cells. Tumor-bearing mice were randomized to treatment groups (n = 5 mice per group) when tumors reached treatment size (300–350 mm^3) and injected with a single intraperitoneal dose of pre-prodrug. Tumor size and body weights were measured regularly. Tumor volume was calculated as π(Lxw^2)/6, where L is the major axis and w is the perpendicular minor axis. Animals were euthanized when the tumor volume had increased fourfold relative to pre-treatment volume (RTV4, survival endpoint) or if body weight loss exceeded 20% of the pre-treatment value. Kaplan–Meier plots were constructed, and median time to endpoint was calculated. Treatment efficacy was assessed by comparing the median survival time with untreated animals using the Log-rank test p-test (Sigmaplot version 11.0).
Supplementary Table S1. Summary of maximum tolerated dose of test compounds
Footnotes: BWL nadir % = body weight loss percentage (time independent nadir). HEP = humane endpoint. * =
Non-tumour bearing H1299 tumour bearing

[3] = test system: mixed H1299 xenograft containing 28% NfsA_Ec cells and 72% WT cells; assay: Tumor growth delay assay, mixed H1299 xenograft; type: in vivo, mice; details: for Survival time compared to PR-104 treated tumors: single i.p. dose: 1-P 1330 µmol/kg
Description: These ratios were broadly similar to those observed in HCT116 cells (Figure 2). A mixed H1299 xenograft model containing a minority percentage (28 ± 3.3%) of NfsA_Ec-expressing cells was used in order to rank the efficacy of the prodrugs in vivo. A model such as this necessitates the presence of a robust bystander effect to achieve a tumor growth delay. Tumor-bearing mice were administered a single intraperitoneal dose of prodrugs 1-P, 2-P, and 6-P at the H1299 tumor-bearing MTD. PR-104 was administered at 388 µmol/kg, the human equivalent dose (HED) in mice that provides a plasma AUCfree of PR-104A (38 µM-h) that equates to the human Q3W MTD of 1100 mg/m^2 [22].
as §1
Figure 5 In vivo efficacy of the three lead pre-prodrug compounds in a mixed H1299 xenograft containing 28% NfsA_Ec cells and 72% WT cells. (A) Tumor growth and (B) survival analysis of mice bearing 250 mm^3 H1299 tumors treated with a single intraperitoneal dose of prodrug on day 0. N = 5 animals per group. Control = PBS, PR-104 = 388 µmol/kg; 1-P = 1330 μmol/kg; 2-P = 750 μmol/kg; and 6-P = 1330 μmol/kg. Survival endpoint was 4× start volume (RTV4).

[4] = non-tumour bearing, cited from earlier work
[5] = test system: SiHa xenografts; assay: Tumor excision assay, clonogenic cell kill of SiHa xenografts; type: in vivo, mice; details: 18 h after treatment, PR-104 380 µmol/kg i.p., 6-P 1330 µmol/kg i.p.
Description: The sensitivity of four cancer cell lines to prodrug 6 was determined under aerobic or anoxic conditions using an anti-proliferative IC50 assay. […] We also evaluated the hypoxic activity of 6-P versus PR-104 in vivo using a SiHa xenograft model (Figure 6B).
When tumors reached treatment size (>400 mm^3), mice were treated with drug by a single intraperitoneal injection of pre-prodrug or vehicle. Mice treated with ionizing radiation were exposed to 10 Gray prior to drug treatment, using a cobalt-60 source from an Eldorado G unit. Animals were euthanized 18 h after drug treatment, and tumors were excised and homogenized using sterile scissors until a fine mince was obtained. Following enzymatic dissociation (2.5 mg/mL pronase, 1 mg/mL collagenase, and 0.2 mg/mL DNAase in αMEM + 10% FBS + 1% P/S, 1 mL per 50 mg), cells were plated at concentrations of 10^2–10^5 cells per 60 mm dish and grown for 10 days before colonies were stained with methylene blue (2 g/L in 50% aqueous alcohol). Colonies containing >50 cells were counted as clonogenic survivors. From these values, plating efficiency (colonies/cells plated), number of clonogens per gram of tumor tissue (plating efficiency × total cells), and log cell kill relative to vehicle treated controls (log clonogens per gram) were calculated. Statistical analysis was undertaken using Holm–Sidak’s one-way ANOVA (Sigmaplot version 11.0).
(A) In vitro anti-proliferative activity of 6 in various cancer cell lines under aerobic and anoxic conditions. IC50 values were determined as the concentration of drug required to inhibit cell growth by 50% of untreated controls following 4 h drug exposure and five days regrowth (mean ±SEM of three or more independent determinations). (B) Clonogenic cell kill of SiHa xenografts 18 h after treatment with hypoxia activated prodrugs PR-104 (380 µmol/kg, i.p.) or 6-P (1330 µmol/kg, i.p.) with or without 10 Gy radiation.

[6] = H1299 tumour bearing, dose 750 µmol/kg
[7] = H1299 tumour bearing, dose 1000 µmol/kg
[8] = non-tumour bearing, dose 1000 µmol/kg
[9] = non-tumour bearing, dose 1330 µmol/kg
[10] = H1299 tumour bearing, dose 1330 µmol/kg
[11] = H1299 tumour bearing, dose 1780 µmol/kg
[12] = non-tumour bearing, dose 1780 µmol/kg

## CCN(CCO)C(=O)c1cc(N(CCBr)CCBr)c(S(C)(=O)=O)cc1[N+](=O)[O-] [Compound 3]
[1]
  logD at 90 min: 1.6

## CN(CCOP(=O)(O)O)C(=O)c1cc(N(CCBr)CCBr)c(S(C)(=O)=O)cc1[N+](=O)[O-] [Compound 2-P, 2-(5-(Bis(2-bromoethyl)amino)-N-methyl-4-(methylsulfonyl)-2-nitrobenzamido)ethyl dihydrogen phosphate]
[2]; [6]
  BWL nadir: -4.0%
  Deaths: 0
  HEP (humane endpoint): 0
  MTD (Yes/above): Yes
[2]; [7]
  BWL nadir: -8.7%
  Deaths: 2
  HEP (humane endpoint): 0
  MTD (Yes/above): above
[2]; H1299 tumor-bearing mice
  MTD: 750 µmol/kg
[2]; nude mice, non-tumour bearing
  MTD: 1000 µmol/kg
[2]; [8]
  BWL nadir: -2.5%
  Deaths: 0
  HEP (humane endpoint): 0
  MTD (Yes/above): Yes
[2]; [9]
  BWL nadir: -10.5%
  Deaths: 1
  HEP (humane endpoint): 1
  MTD (Yes/above): above
[3]; 2-P 750 µmol/kg
  Survival time compared to PR-104 treated tumors: did not produce an improvement in survival time

## CCCS(=O)(=O)c1cc([N+](=O)[O-])c(C(=O)NCCO)cc1N(CCBr)CCBr [Compound 8]
other
  melting point: 128 to 129 °C

## CCS(=O)(=O)c1cc([N+](=O)[O-])c(C(=O)NCCO)cc1N(CCBr)CCBr [Compound 5, 5-(Bis(2-bromoethyl)amino)-N-(2-hydroxyethyl)-4-(ethylsulfonyl)-2-nitrobenzamide]
[1]
  logD at 90 min: 1.5
other
  melting point: 137 to 140 °C

## CS(=O)(=O)c1cc([N+](=O)[O-])c(C(=O)NCCOP(=O)(O)O)cc1N(CCBr)CCBr [Compound 1-P]
[4]; dose 1780 µmol/kg
  BWL nadir: -2.8%
  Deaths: 0
  HEP (humane endpoint): 0
  MTD (Yes/above): Yes
[4]; dose 2370 µmol/kg
  BWL nadir: -6.9%
  Deaths: 2
  HEP (humane endpoint): 0
  MTD (Yes/above): above
[4]; nude mice, i.p.
  Maximum tolerated dose (MTD): 1780 µmol/kg
[2]; [10]
  BWL nadir: -2.2%
  Deaths: 0
  HEP (humane endpoint): 0
  MTD (Yes/above): Yes
[2]; [11]
  BWL nadir: -7.6%
  Deaths: 1
  HEP (humane endpoint): 1
  MTD (Yes/above): above
[2]; H1299 tumor-bearing mice
  MTD: 1330 µmol/kg
[3]; 2-P 750 µmol/kg
  Survival time compared to PR-104 treated tumors: did not produce an improvement in survival time

## CCS(=O)(=O)c1cc([N+](=O)[O-])c(C(=O)N(C)CCOP(=O)(O)O)cc1N(CCBr)CCBr [Compound 6-P, 2-(5-(bis(2-bromoethyl)amino)-4-(ethylsulfonyl)-N-methyl-2-nitrobenzamido)ethyl dihydrogen phosphate]
[5]; 10 Gy radiation
  Log cell kill, in combination with radiotherapy: 4.05
[5]
  Log cell kill, single agent: 1.06
[2]; [10]
  BWL nadir: -5.3%
  Deaths: 0
  HEP (humane endpoint): 0
  MTD (Yes/above): Yes
[2]; H1299 tumor-bearing mice
  MTD: 1330 µmol/kg
[2]; nude mice, non-tumour bearing
  MTD: 1330 µmol/kg
[2]; [9]
  BWL nadir: -1.8%
  Deaths: 0
  HEP (humane endpoint): 0
  MTD (Yes/above): Yes
[2]; [12]
  Deaths: 0
  HEP (humane endpoint): 2
  MTD (Yes/above): above
[3]; single i.p. dose, 6-P 1330 µmol/kg, PR-104 388 µmol/kg
  Tumor growth delay compared to PR-104 treated group: 92%
[3]; single i.p. dose: PR-104 388 µmol/kg, 1-P 1330 µmol/kg, 2-P 750 µmol/kg, 6-P 1330 µmol/kg
  Tumor growth delay (median time to RTV4) compared to untreated controls: 156%
